Values after ≈ are worked out from the molar mass of the structure shown. Ends that are not written are not given here.

The results in this text go back to patent US11246922B1, “Vaccine RNA-peptide against SARS-CoV-2 with endogenous exosomes as carrier” (Elidan America, LLC., priority 2021, dated 2022).

The nature of data set [1]: in vitro. Conditions: human, HEK293 cells.
The nature of data set [2]: in vitro. Conditions: human, WM-266 cells.

For the compound CVNDTFAGSTFISDEVD [Peptide-A], the LC100 in the data set with HMEC-1 cell line turned out to be 452; in the data set with HUVEC cell line, 445; with WM-266 cell line, 445 µg/µL; in the data set with BEAS-2B cell line it was 447; with HEK293 cell line, 450.

In general, CC50 refers to the concentration at which the toxic effect on the cells reaches its halfway point. A higher CC50 goes with better tolerance by the cells. In the case of `CCCCCCCCCCCCCC(=O)O[C@@H]1[C@@H](C)[C@@]2(O)[C@@H](C=C(CO)C[C@]3(O)C(=O)C(C)=C[C@@H]23)[C@@H]2C(C)(C)[C@]12OC(C)=O` [PMA, Phorbol 12-myristate 13-acetate, reference compound], the CC50 in the data set on HMEC-1 cell line was found to be 291 µg/mL (≈ 472 µM); in the data set with HUVEC cell line, 272 µg/mL (≈ 441 µM); in the data set on WM-266 cell line, 310 µg/mL (≈ 503 µM); in the data set on BEAS-2B cell line, 297 µg/mL (≈ 481 µM); in the data set with HEK293 cell line, 275 µg/mL (≈ 446 µM).

With Phosphate-buffered saline [PBS], the LC100 with HMEC-1 cell line came out at 580; in the data set on HUVEC cell line, 612; in the data set with WM-266 cell line it was 587 µg/µL; in the data set with BEAS-2B cell line, 616; in the data set on HEK293 cell line, 539.

On to GVDEVAKKKSK [Peptide-B], for which the LC100 in the data set with WM-266 cell line turned out to be 445 µg/µL.

For “CVNDTFAGSTFISDEVDGVDEVAKKKSK [Peptide-AB]”, the CC50 is 6 µg/mL in “in vitro [1]” and 36 µg/mL in “in vitro [2]”. The LC100 in the data set on HMEC-1 cell line was determined as 450; in the data set on HUVEC cell line, 456; with WM-266 cell line, 444 µg/µL; in the data set with BEAS-2B cell line, 444; with HEK293 cell line, 7.
